Reference: US11926599B1, “1-(2-chlorobenzylideneamino)-5,5-diphenylimidazolidine-2,4-dione as an antimicrobial compound” (KING FAISAL UNIVERSITY, priority 2023, dated 2024)

Assays:
Type in all cases: cell-based
Bacillus cereus = test: Agar plate disc-diffusion, antibacterial inhibition zone; conditions: nutrient agar, 37° C., 48 hours, DMSO zone subtracted
Procedure: (§1) The agar plate disc-diffusion method was applied. […] The discs were then placed onto the surface of agar plates (nutrient agar for bacteria and Sabouraud's dextrose agar for fungi) seeded with the test organism. Each plate contained 15 mL of the agar medium, previously seeded with 0.2 mL of the broth culture of each organism pregrown for 18 hours. The plates were incubated at 37° C. for 48 hours, and 72 hours for fungi. The inhibition zones was measured in millimeter. Discs impregnated with DMSO were used as a control, and its inhibition zone was subtracted from the tested compound actual inhibition zone.
(§2) The results of the antimicrobial testing can be observed in Tables 1 and 2, below, with ciprofloxacin serving as a reference.

Escherichia coli = test: as above; conditions: nutrient agar, 37° C., 48 hours, DMSO zone subtracted
Procedure: as §1, §2

Pseudomonas aeruginosa = test: as above; conditions: nutrient agar, 37° C., 48 hours, DMSO zone subtracted
Procedure: as §1, §2

Staphylococcus aureus = test: as above; conditions: nutrient agar, 37° C., 48 hours, DMSO zone subtracted
Procedure: as §1, §2

Aspergillus flavus = test: Agar plate disc-diffusion, antifungal inhibition zone; conditions: Sabouraud's dextrose agar, 72 hours, DMSO zone subtracted
Procedure: as §1, §2

[1] = system: Chrysosporium keratinophilum; test: as above; conditions: Sabouraud's dextrose agar, 72 hours, DMSO zone subtracted
Procedure: as §1, §2

[2] = A = concentration of comp. = 10,000 μL
[3] = B = concentration of comp. = 30.000 μL
[4] = C = concentration of comp. = 50,000 μL

O=C1NC(=O)C(c2ccccc2)(c2ccccc2)N1/N=C/c1ccccc1Cl [Compound 4, 1-(2-chlorobenzylideneamino)-5,5-diphenylimidazolidine-2,4-dione]
inhibition zone, Bacillus Cereus, A (Bacillus cereus; [2]): 26 millimeter | inhibition zone, Bacillus Cereus, B (Bacillus cereus; [3]): 29 millimeter | inhibition zone, Bacillus Cereus, C (Bacillus cereus; [4]): 41 millimeter | inhibition zone, Escherichia coli, A (Escherichia coli; [2]): 27 millimeter | inhibition zone, Escherichia coli, B (Escherichia coli; [3]): 32 millimeter | inhibition zone, Escherichia coli, C (Escherichia coli; [4]): 51 millimeter | inhibition zone, Pseudomonas aeruginosa, A (Pseudomonas aeruginosa; [2]): 20 millimeter | inhibition zone, Pseudomonas aeruginosa, B (Pseudomonas aeruginosa; [3]): 24 millimeter | inhibition zone, Pseudomonas aeruginosa, C (Pseudomonas aeruginosa; [4]): 34 millimeter | inhibition zone, Staphylococcus aureus, A (Staphylococcus aureus; [2]): 10 millimeter | inhibition zone, Staphylococcus aureus, B (Staphylococcus aureus; [3]): 17 millimeter | inhibition zone, Staphylococcus aureus, C (Staphylococcus aureus; [4]): 20 millimeter | inhibition zone, Aspergillus flavus, A (Aspergillus flavus; [2]): 25 millimeter | inhibition zone, Aspergillus flavus, B (Aspergillus flavus; [3]): 24 millimeter | inhibition zone, Aspergillus flavus, C (Aspergillus flavus; [4]): 36 millimeter | inhibition zone, Chrysosporium keratinophilum, A [1, 2]: 27 millimeter | inhibition zone, Chrysosporium keratinophilum, B [1, 3]: 29 millimeter | inhibition zone, Chrysosporium keratinophilum, C [1, 4]: 50 millimeter
